Reference: patent US10308595B2, “Albicidin derivatives, their use and synthesis” (priority 2013, dated 2019)
Read-outs that look alike come from different tables or passages of the source.

Columns and labels:
Assay in all cases: Test agar plates (disc diffusion), diameter of inhibition area
Type in all cases: cell-based
[1] = system: Staphylococcus aureus DSM 2569; conditions: DSM2569, 18 h, test agar plates, active substance 1 mg/ml, "more than 1 cm and more than 2 cm" [sic], read-out: diameter of inhibition, Staphylococcus aureus DSM 2569
Experimental: (§1) The dry compounds were dissolved in DMSO (1 mg/ml) and the so obtained stock solution was diluted with sterilized Millipore water 1:10 and 1:100
(§2) 20 μl of cryo stock of each strain were inoculated to 20 ml of Mueller-Hinton medium and grown overnight at 30° C. or 37° C. on a vertical shaker with 160 rpm. The inoculum for the test was adjusted by the 0.5 McFarland Standard (OD625 from 0.08 to 0.1)
Staphylococcus aureus DSM 2569 [gram. Pos.] Medium: MHB/37° C.
(§3) Every plate is prepared by pouring 10 ml Mueller-Hinton agar into standard petri dishes (diam 94 mm). The so obtained Mueller-Hinton plates are overlayed with 4 ml Mueller-Hinton soft agar containing 100 μl suspension of the test strain.
(§4) After the soft agar turned solid, sterile susceptibility test discs were circular placed on the agar and on every test disc 10 μl compound was added. Each concentration is tested in triplicate. The agar dishes were incubated for 18 hours at a temperature of 30° C. or 37° C. Results are obtained by measuring the diameter of inhibition area around each test disc.

Bacillus subtilis DSM10 = conditions: Bacillus subtilis, DSM10, 18 h, read-out: diameter of inhibition, Bacillus subtilis DSM10
Experimental: as §1, §2
Bacillus subtilis DSM10 [gram. Pos.] Medium: MHB/30° C.
as §3, §4

[2] = system: Micrococcus luteus DSM1790; conditions: Micrococcus luteus, DSM1790, 18 h, read-out: diameter of inhibition, Micrococcus luteus DSM1790
Experimental: as §1, §2
Micrococcus luteus DSM1790 [gram. Pos.] Medium: MHB/37° C.
as §3, §4

[3] = system: Escherichia coli albi-res (Montpellier); conditions: 18 h, read-out: diameter of inhibition, Escherichia coli albi-res (Montpellier)
Experimental: as §1, §2
Escherichia coli albi-res (Montpellier) [gram. Neg.] Medium: MHB/37° C.
as §3, §4

Escherichia coli DH5α = conditions: 18 h, read-out: diameter of inhibition, Escherichia coli DH5α
Experimental: as §1, §2
Escherichia coli DH5α [gram. Neg.] Medium: MHB/37° C.
as §3, §4

[4] = system: Pseudomonas aeruginosa DSM1117; conditions: DSM1117, 18 h, read-out: diameter of inhibition, Pseudomonas aeruginosa DSM1117
Experimental: as §1, §2
Pseudomonas aeruginosa DSM1117 [gram. Neg.] Medium: MHB/37° C.
as §3, §4

[5] = test agar plates, active substance 1 mg/ml, more than 1 cm or more than 3.9 cm [sic]
[6] = test agar plates, active substance 1 mg/ml, "more than 1 cm and more than 2 cm" [sic]
[7] = test agar plates, active substance 1 mg/ml, more than 1 cm or more than 2 cm

Measured: zone of inhibition at 1000 µg/mL

COc1c(NC(=O)c2ccc(NC(=O)c3ccc(NC(=O)C(CC#N)NC(=O)c4ccc(NC(=O)/C(C)=C/c5ccccc5)cc4)cc3)c(OC)c2O)ccc(C(=O)O)c1O (stereo not drawn) [Compound 2]
> 10 mm: [1] | Bacillus subtilis DSM10; [5] | [2]; [6] | [3]; [7] | Escherichia coli DH5α; [7] | [4]; [7]

COc1c(NC(=O)c2ccc(NC(=O)c3ccc(NC(=O)C(CC#N)NC(=O)c4ccc(NC(=O)/C=C/c5ccccc5)cc4)cc3)c(OC)c2O)ccc(C(=O)O)c1O (stereo not drawn) [Compound 3]
> 10 mm: [1] | Bacillus subtilis DSM10; [5] | [2]; [6] | [3]; [7] | Escherichia coli DH5α; [7] | [4]; [7]

COc1c(NC(=O)c2ccc(NC(=O)c3ccc(NC(=O)C(CC#N)NC(=O)c4ccc(NC(=O)/C(C)=C/c5ccc(C(F)(F)F)cc5)cc4)cc3)c(OC)c2O)ccc(C(=O)O)c1O (stereo not drawn) [Compound 4]
> 10 mm: [1] | Bacillus subtilis DSM10; [5] | [2]; [6] | [3]; [7] | Escherichia coli DH5α; [7] | [4]; [7]

COc1c(NC(=O)c2ccc(NC(=O)c3ccc(NC(=O)C(CC#N)NC(=O)c4ccc(NC(=O)c5ccc(O)cc5)cc4)cc3)c(OC)c2O)ccc(C(=O)O)c1O (stereo not drawn) [Compound 7]
> 10 mm: [1] | Bacillus subtilis DSM10; [5] | [3]; [7] | [4]; [7]

COc1c(NC(=O)c2ccc(NC(=O)c3ccc(NC(=O)C(CC#N)NC(=O)c4ccc(NC(=O)c5ccc(N6CCOCC6)cc5)cc4)cc3)c(OC)c2O)ccc(C(=O)O)c1O (stereo not drawn) [Compound 8]
> 10 mm: [1] | Bacillus subtilis DSM10; [5] | [3]; [7] | Escherichia coli DH5α; [7]

COc1c(NC(=O)c2ccc(NC(=O)c3ccc(NC(=O)C(CC#N)NC(=O)c4ccc(NC(=O)c5ccc(-c6ccccc6)cc5)cc4)cc3)c(OC)c2O)ccc(C(=O)O)c1O (stereo not drawn) [Compound 9]
> 10 mm: [1] | Bacillus subtilis DSM10; [5] | [2]; [6] | [3]; [7] | Escherichia coli DH5α; [7]

COc1ccc(C(=O)Nc2ccc(C(=O)NC(CC#N)C(=O)Nc3ccc(C(=O)Nc4ccc(C(=O)Nc5ccc(C(=O)O)c(O)c5OC)c(O)c4OC)cc3)cc2)cc1 (stereo not drawn) [Compound 10]
> 10 mm: [1] | Bacillus subtilis DSM10; [5] | [2]; [6] | [3]; [7] | Escherichia coli DH5α; [7] | [4]; [7]

COc1c(NC(=O)c2ccc(NC(=O)c3ccc(NC(=O)C(CC#N)NC(=O)c4ccc(NC(=O)c5cccc(-c6ccccc6)c5)cc4)cc3)c(OC)c2O)ccc(C(=O)O)c1O (stereo not drawn) [Compound 13]
> 10 mm: Bacillus subtilis DSM10; [5] | [2]; [6] | [3]; [7] | Escherichia coli DH5α; [7] | [4]; [7]

COc1c(NC(=O)c2ccc(NC(=O)c3ccc(NC(=O)C(CC#N)NC(=O)c4ccc(NC(=O)c5ccc[nH]5)cc4)cc3)c(OC)c2O)ccc(C(=O)O)c1O (stereo not drawn) [Compound 14]
> 10 mm: Bacillus subtilis DSM10; [5] | [3]; [7]

COc1c(NC(=O)c2ccc(NC(=O)c3ccc(NC(=O)C(CC#N)NC(=O)c4ccc(NC(=O)c5ccco5)cc4)cc3)c(OC)c2O)ccc(C(=O)O)c1O (stereo not drawn) [Compound 15]
> 10 mm: [1] | Bacillus subtilis DSM10; [5] | [3]; [7]

COc1c(NC(=O)c2ccc(NC(=O)c3ccc(NC(=O)C(CC#N)NC(=O)c4ccc(NC(=O)Cc5ccc(Cl)cc5)cc4)cc3)c(OC)c2O)ccc(C(=O)O)c1O (stereo not drawn) [Compound 26]
> 10 mm: Bacillus subtilis DSM10; [5] | [3] | [4]; [7]

COc1c(NC(=O)c2ccc(NC(=O)c3ccc(NC(=O)C(CC#N)NC(=O)c4ccc(NC(=O)CCc5ccccn5)cc4)cc3)c(OC)c2O)ccc(C(=O)O)c1O (stereo not drawn) [Compound 29]
> 10 mm: Bacillus subtilis DSM10; [5] | [3] | [4]; [7]

CCCCCC(=O)Nc1ccc(C(=O)NC(CC#N)C(=O)Nc2ccc(C(=O)Nc3ccc(C(=O)Nc4ccc(C(=O)O)c(O)c4OC)c(O)c3OC)cc2)cc1 (stereo not drawn) [Compound 34]
> 10 mm: [1] | Bacillus subtilis DSM10; [5] | [3] | Escherichia coli DH5α; [7] | [4]; [7]

COc1c(NC(=O)c2ccc(NC(=O)c3ccc(NC(=O)C(CC#N)NC(=O)c4ccc(NC(=O)C5CC5)cc4)cc3)c(OC)c2O)ccc(C(=O)O)c1O (stereo not drawn) [Compound 38]
> 10 mm: Bacillus subtilis DSM10; [5] | [3]; [7]

CCC(CC)C(=O)Nc1ccc(C(=O)NC(CC#N)C(=O)Nc2ccc(C(=O)Nc3ccc(C(=O)Nc4ccc(C(=O)O)c(O)c4OC)c(O)c3OC)cc2)cc1 (stereo not drawn) [Compound 39]
> 10 mm: Bacillus subtilis DSM10; [5] | [3]; [7]

COc1c(NC(=O)c2ccc(NC(=O)c3ccc(NC(=O)C(CC#N)NC(=O)c4ccc(NC(=O)C(C)(C)C)cc4)cc3)c(OC)c2O)ccc(C(=O)O)c1O (stereo not drawn) [Compound 40]
> 10 mm: Bacillus subtilis DSM10; [5] | [3]; [7]

COc1c(NC(=O)c2ccc(NC(=O)c3ccc(NC(=O)C(CC#N)NC(=O)c4ccc(NC(=O)C5CCCC5)cc4)cc3)c(OC)c2O)ccc(C(=O)O)c1O (stereo not drawn) [Compound 41]
> 10 mm: Bacillus subtilis DSM10; [5] | [3]; [7]

COc1c(NC(=O)c2ccc(NC(=O)c3ccc(NC(=O)C(CC#N)NC(=O)c4ccc(NCc5ccc(-c6ccccc6)cc5)cc4)cc3)c(OC)c2O)ccc(C(=O)O)c1O (stereo not drawn) [Compound 44]
> 10 mm: Bacillus subtilis DSM10 | [2] | [3] | Escherichia coli DH5α | [4]

COc1ccc(S(=O)(=O)Nc2ccc(C(=O)NC(CC#N)C(=O)Nc3ccc(C(=O)Nc4ccc(C(=O)Nc5ccc(C(=O)O)c(O)c5OC)c(O)c4OC)cc3)cc2)cc1 (stereo not drawn) [Compound 49]
> 10 mm: [3]
